Measured values published in US20250213701A1, “MEDICAMENT FOR TREATING HUMAN TUMOR BASED ON ERF3A-TARGETING PROTEOLYSIS MECHANISM” (SUZHOU DEGEN BIO-MEDICAL CO., LTD., priority 2022, published 2025).

What was measured:
Type in all cases: cell-based
Conditions in all cases: Homo sapiens, 72 h, 3 days, read-out: Inhibition rate
[1] = system: PC-3 cells; test: Anti-proliferative toxicity of C63 in tumor cell lines (CCK8): PC-3
Experimental: (§1) Example 83: Detection of Anti-Proliferative Toxicity of C63 in Some Tumor Cell Lines
PC-3 cells (purchased from the Cell Bank of the Chinese Academy of Sciences, Cat. No. SCSP-532) were subcultured in a culture medium (F12K medium+1% penicillin-streptomycin dual-antibiotic solution+10% fetal bovine serum) in an incubator at […] and 37° C.
PC-3 cells were seeded at 4000 cells/well (90 μL) on a 96-well plate and cultured for 24 h.
(§2) 10 mM compound stock solutions were prepared in DMSO.
(§3) The compound stock solution was diluted with DMSO to give DMSO solutions 1-9 at concentrations of 0 μM, 2500 μM, 500 μM, 100 μM, 20 μM, 4 μM, 0.8 μM, 0.16 μM, and 0.032 μM.
(§4) 2 μL of each of solutions 1-9 was added to 98 μL of the medium to give mixed solutions 11-19 of the compound and the medium.
(§5) 10 μL of each of solutions 11-19 was added to the above cell seed solution to give a total volume of 100 μL (90 μL+10 μL).
(§6) The concentrations of the compound in the wells were 0 μM, 5.0 μM, 1.0 μM, 0.2 μM, 0.04 μM, 0.008 μM, 0.0016 μM, 0.00032 μM, and 0.000064 μM. All concentrations were in triplicate.
(§7) After the above-treated cells were cultured for 3 days, 10 μL of the CCK8 solution (DOJINDO, Cat. No. PF725) was added to each well. The plate was incubated in an incubator at 37° C. for 1-4 h and then detected on a microplate reader for the reading at 450 nm.

[2] = system: DU 145 cells; test: Anti-proliferative toxicity of C63 in tumor cell lines (CCK8): DU 145
Experimental: as §1
DU 145 cells (purchased from the Cell Bank of the Chinese Academy of Sciences, Cat. No. SCSP-5024) were subcultured in a culture medium (MVEM medium+[…] penicillin-streptomycin dual-antibiotic solution+10% fetal bovine serum) in an incubator at 5% carbon dioxide and 37° C.
DU 145 cells were seeded at 5000 cells/well (90 μL) on a 96-well plate and cultured for 24 h.
as §2, §3, §4, §5, §6, §7

[3] = system: HL-60 cells; test: Anti-proliferative toxicity of C63 in tumor cell lines (CCK8): HL-60
Experimental: as §1
HL-60 cells (purchased from the Cell Bank of the Chinese Academy of Sciences, Cat. No. TCHu23) were subcultured in a culture medium (IMDM medium+1% penicillin-streptomycin dual-antibiotic solution+20% fetal bovine serum) in an incubator at 5% carbon dioxide and 37° C.
HL-60 cells were seeded at 20000 cells/well (90 μL) on a 96-well plate and cultured for 24 h.
as §2, §3, §4, §5, §6, §7

[4] = system: MDA-MB-468 cells; test: Anti-proliferative toxicity of C63 in tumor cell lines (CCK8): MDA-MB-468
Experimental: as §1
MDA-MB-468 cells (purchased from the Cell Bank of the Chinese Academy of Sciences, Cat. No. TCHu136) were subcultured in a culture medium (L15 medium+1% penicillin-streptomycin dual-antibiotic solution+10% fetal bovine serum) in an incubator at 37° C.
MDA-MB-468 cells were seeded at 5000 cells/well (90 μL) on a 96-well plate and cultured for 24 h.
as §2, §3, §4, §5, §6, §7

[5] = system: Ca Ski cells; test: Anti-proliferative toxicity of C63 in tumor cell lines (CCK8): Ca Ski
Experimental: as §1
Ca Ski cells (purchased from the Cell Bank of the Chinese Academy of Sciences, Cat. No. TCHu137) were subcultured in a culture medium (RPMI-1640 medium+1% penicillin-streptomycin dual-antibiotic solution+10% fetal bovine serum) in an incubator at 5% carbon dioxide and 37° C.
Ca Ski cells were seeded at 5000 cells/well (90 μL) on a 96-well plate and cultured for 24 h.
as §2, §3, §4, §5, §6, §7

Structure (SMILES): C[C@]12C=CC(=O)N[C@@H]1CC[C@@H]1[C@@H]2CC[C@]2(C)[C@@H](C(=O)Nc3cccc(N[C@@H]4CCC[C@@H](Nc5cccc6c5C(=O)N([C@H]5CCC(=O)NC5=O)C6=O)C4)c3)CC[C@@H]12 [C63, N-(3-(N—(N-(4-(2-(3S-(2,6-dioxopiperidine))-isoindole-1,3-dione))-1R,3R-cyclohexanediamine))phenyl)-3-oxo-4-aza-5α-androst-1-ene-17β-carboxamide]
- inhibition at 64 pM ([1]; 0.000064 μM): 45.1%
- inhibition at 0.00032 µM ([1]; 0.000320 μM): 65.1%
- inhibition at 0.0016 µM ([1]; 0.001600 μM): 78.8%
- inhibition at 0.008 µM ([1]; 0.008000 μM): 82.8%
- inhibition at 0.04 µM ([1]; 0.040000 μM): 80.2%
- inhibition at 0.2 µM ([1]; 0.200000 μM): 78.4%
- inhibition at 1 µM ([1]; 1.000000 μM): 78.4%
- inhibition at 5 µM ([1]; 5.000000 μM): 82.1%
- inhibition at 64 pM ([2]; 0.000064 μM): 22.1%
- inhibition at 0.00032 µM ([2]; 0.000320 μM): 20.5%
- inhibition at 0.0016 µM ([2]; 0.001600 μM): 22.7%
- inhibition at 0.008 µM ([2]; 0.008000 μM): 48.4%
- inhibition at 0.04 µM ([2]; 0.040000 μM): 60.9%
- inhibition at 0.2 µM ([2]; 0.200000 μM): 74.3%
- inhibition at 1 µM ([2]; 1.000000 μM): 81.9%
- inhibition at 5 µM ([2]; 5.000000 μM): 82.4%
- inhibition at 64 pM ([3]; 0.000064 μM): 73.5%
- inhibition at 0.00032 µM ([3]; 0.000320 μM): 80.2%
- inhibition at 0.0016 µM ([3]; 0.001600 μM): 89.5%
- inhibition at 0.008 µM ([3]; 0.008000 μM): 90.7%
- inhibition at 0.04 µM ([3]; 0.040000 μM): 92.4%
- inhibition at 0.2 µM ([3]; 0.200000 μM): 94.3%
- inhibition at 1 µM ([3]; 1.000000 μM): 91.6%
- inhibition at 5 µM ([3]; 5.000000 μM): 87.5%
- inhibition at 64 pM ([4]; 0.000064 μM): 4.42%
- inhibition at 0.00032 µM ([4]; 0.000320 μM): 30.5%
- inhibition at 0.0016 µM ([4]; 0.001600 μM): 55.1%
- inhibition at 0.008 µM ([4]; 0.008000 μM): 64.6%
- inhibition at 0.04 µM ([4]; 0.040000 μM): 65%
- inhibition at 0.2 µM ([4]; 0.200000 μM): 65.5%
- inhibition at 1 µM ([4]; 1.000000 μM): 70.2%
- inhibition at 5 µM ([4]; 5.000000 μM): 74%
- inhibition at 64 pM ([5]; 0.000064 μM): 2.03%
- inhibition at 0.00032 µM ([5]; 0.000320 μM): 6.27%
- inhibition at 0.0016 µM ([5]; 0.001600 μM): 42.9%
- inhibition at 0.008 µM ([5]; 0.008000 μM): 65.4%
- inhibition at 0.04 µM ([5]; 0.040000 μM): 73.9%
- inhibition at 0.2 µM ([5]; 0.200000 μM): 78%
- inhibition at 1 µM ([5]; 1.000000 μM): 77.8%
- inhibition at 5 µM ([5]; 5.000000 μM): 78.1%
